Measured values as given in patent US8415378B2, “Isoxazol-3(2H)-one analogs as therapeutic agents” (AstraZeneca AB, priority 2009, dated 2013).

biological target: T1, human Glu-plasminogen (Homo sapiens, UniProt P00747); assay: Clot-lysis buffer assay; assay type: biochemical
T1 construct: human Glu-plasminogen; purchased Chromogenix, Italy
Procedure: The assay method used for evaluating biological activity of the compounds according to the invention was Clot-lysis buffer assay.
Tested substance were added to the reaction mixture in 10% DMSO. Reaction was started by the addition of thrombin.
Measured according to the Clot-lysis buffer assay described above.

T1 sequence (P00747 20-810 limits assumed): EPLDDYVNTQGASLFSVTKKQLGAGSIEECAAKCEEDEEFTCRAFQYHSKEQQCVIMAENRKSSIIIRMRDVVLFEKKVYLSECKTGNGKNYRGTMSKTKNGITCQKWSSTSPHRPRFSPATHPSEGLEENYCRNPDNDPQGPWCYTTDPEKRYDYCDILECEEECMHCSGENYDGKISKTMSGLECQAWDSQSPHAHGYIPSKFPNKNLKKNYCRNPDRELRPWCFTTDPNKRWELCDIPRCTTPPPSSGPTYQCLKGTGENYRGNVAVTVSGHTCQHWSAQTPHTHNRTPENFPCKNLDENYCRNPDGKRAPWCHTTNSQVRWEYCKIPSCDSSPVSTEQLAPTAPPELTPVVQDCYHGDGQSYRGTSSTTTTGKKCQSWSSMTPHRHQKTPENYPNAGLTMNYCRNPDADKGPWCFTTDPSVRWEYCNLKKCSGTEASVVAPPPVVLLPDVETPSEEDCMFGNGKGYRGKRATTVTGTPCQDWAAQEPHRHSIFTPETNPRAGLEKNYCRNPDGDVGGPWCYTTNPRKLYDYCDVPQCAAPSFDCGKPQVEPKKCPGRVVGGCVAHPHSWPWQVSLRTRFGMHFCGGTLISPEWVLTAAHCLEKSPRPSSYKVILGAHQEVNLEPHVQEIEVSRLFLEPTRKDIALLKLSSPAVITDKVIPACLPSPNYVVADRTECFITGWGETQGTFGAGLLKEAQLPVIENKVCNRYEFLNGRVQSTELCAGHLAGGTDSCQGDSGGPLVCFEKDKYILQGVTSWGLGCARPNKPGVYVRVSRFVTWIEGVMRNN

SMILES | IC50
O=c1cc([C@@H]2CCN[C@@H](c3ccc(C(F)(F)F)cc3F)C2)o[nH]1 (relative stereo) [Example 74, 5-(Trans-2-(2-fluoro-4-(trifluoromethyl)phenyl)piperidin-4-yl)isoxazol-3(2H)-one] | 52.2 µM
O=c1cc([C@H]2CCN[C@@H](Cc3cccc(C(F)(F)F)c3)C2)o[nH]1 [Example 107, 5-((2R,4S)-2-(3-(Trifluoromethyl)benzyl)piperidin-4-yl)isoxazol-3(2H)-one] | 1.7 µM
O=c1cc([C@H]2CCN[C@H](c3ccccc3)C2)o[nH]1 [Example 78] | 64.2 µM
O=c1cc([C@@H]2CCN[C@@H](c3cc(F)c(C(F)(F)F)c(F)c3)C2)o[nH]1 (relative stereo) [Example 71, 5-(Trans-2-(3,5-difluoro-4-(trifluoromethyl)phenyl)piperidin-4-yl)isoxazol-3(2H)-one] | 11.6 µM
O=c1cc([C@H]2CCN[C@@H](c3ccc(Cl)c(F)c3)C2)o[nH]1 [Example 49, 5-((2R,4S)-2-(4-Chloro-3-fluorophenyl)piperidin-4-yl)isoxazol-3(2H)-one] | 2 µM
O=c1cc([C@@H]2CCN[C@@H](Cc3ccc(F)c(F)c3)C2)o[nH]1 [Example 123, 5-((2R,4R)-2-(3,4-Difluorobenzyl)piperidin-4-yl)isoxazol-3(2H)-one] | 147 µM
CC(C)(C)c1cc(C[C@H]2C[C@@H](c3cc(=O)[nH]o3)CCN2)cc(C(C)(C)C)c1 [Example 146, 5-((2R,4S)-2-(3,5-Di-tert-butylbenzyl)piperidin-4-yl)isoxazol-3(2H)-one] | 6.6 µM
O=c1cc([C@H]2CCN[C@@H](Cc3cc(F)c(F)c(F)c3)C2)o[nH]1 [Example 143, 5-((2R,4S)-2-(3,4,5-Trifluorobenzyl)piperidin-4-yl)isoxazol-3(2H)-one] | 0.9 µM
O=c1cc([C@H]2CCN[C@H](Cc3cc(F)cc(F)c3)C2)o[nH]1 [Example 132, 5-((2S,4S)-2-(3,5-Difluorobenzyl)piperidin-4-yl)isoxazol-3(2H)-one] | 2.2 µM
O=c1cc([C@H]2CCN[C@@H](c3ccc(F)c(F)c3)C2)o[nH]1 [Example 23, 5-((2R,4S)-2-(3,4-Difluorophenyl)piperidin-4-yl)isoxazol-3(2H)-one] | 1 µM
O=c1cc([C@H]2CCN[C@@H](c3ccc(Cl)cc3Cl)C2)o[nH]1 [Example 51, 5-((2R,4S)-2-(2,4-Dichlorophenyl)piperidin-4-yl)isoxazol-3(2H)-one] | 0.9 µM
O=c1cc([C@H]2CCN[C@@H](c3ccc(C(F)(F)F)c(F)c3)C2)o[nH]1 [Example 75, 5-((2R,4S)-2-(3-Fluoro-4-(trifluoromethyl)phenyl)piperidin-4-yl)isoxazol-3(2H)-one] | 3.1 µM
O=c1cc([C@@H]2CCN[C@@H](c3cc(Cl)cc(Cl)c3)C2)o[nH]1 (relative stereo) [Example 57, 5-(Trans-2-(3,5-dichlorophenyl)piperidin-4-yl)isoxazol-3(2H)-one] | 40 µM
CC(C)(C)c1ccc([C@@H]2C[C@H](c3cc(=O)[nH]o3)CCN2)s1 [Example 43, 5-((2S,4R)-2-(5-tert-Butylthiophen-2-yl)piperidin-4-yl)isoxazol-3(2H)-one] | 77.5 µM
O=c1cc([C@H]2CCN[C@@H](Cc3c(F)cccc3F)C2)o[nH]1 [Example 127, 5-((2R,4S)-2-(2,6-Difluorobenzyl)piperidin-4-yl)isoxazol-3(2H)-one] | 1.4 µM
O=c1cc([C@@H]2CCN[C@@H](Cc3cc(F)cc(C(F)(F)F)c3)C2)o[nH]1 (relative stereo) [Example 139, 5-(Trans-2-(3-fluoro-5-(trifluoromethyl)benzyl)piperidin-4-yl)isoxazol-3(2H)-one] | 2.9 µM
O=c1cc([C@@H]2CCN[C@@H](Cc3ccc(OC(F)(F)F)cc3)C2)o[nH]1 (relative stereo) [Example 114, 5-(Trans-2-(4-(trifluoromethoxy)benzyl)piperidin-4-yl)isoxazol-3(2H)-one] | 6.5 µM
CS(=O)(=O)c1ccc(C2CC(c3cc(=O)[nH]o3)CCN2)cc1 (stereo not drawn) [Example 39, 5-((Trans-2-(4-(methylsulfonyl)phenyl)piperidin-4-yl)isoxazol-3(2H)-one] | 97.3 µM
O=c1cc([C@@H]2CCN[C@@H](c3ccc(Cl)cc3Cl)C2)o[nH]1 [Example 54, 5-((2R,4R)-2-(2,4-Dichlorophenyl)piperidin-4-yl)isoxazol-3(2H)-one] | 372 µM
O=c1cc([C@@H]2CCN[C@H](c3ccc(C(F)(F)F)cc3)C2)o[nH]1 [Example 34, 5-((2S,4R)-2-(4-(Trifluoromethyl)phenyl)piperidin-4-yl)isoxazol-3(2H)-one] | 150 µM
O=c1cc([C@H]2CCN[C@@H](COC3CCCCC3)C2)o[nH]1 [Example 84, 5-((2R,4S)-2-(Cyclohexyloxymethyl)piperidin-4-yl)isoxazol-3(2H)-one] | 1.7 µM

SMILES | IC50
CS(=O)(=O)c1ccc(C[C@@H]2C[C@H](c3cc(=O)[nH]o3)CCN2)cc1 [Example 118, 5-((2S,4R)-2-(4-(Methylsulfonyl)benzyl)piperidin-4-yl)isoxazol-3(2H)-one] | 225 µM
O=c1cc([C@@H]2CCN[C@@H](Cc3ccc(Cl)cc3)C2)o[nH]1 (relative stereo) [Example 116, 5-(Trans-2-(4-chlorobenzyl)piperidin-4-yl)isoxazol-3(2H)-one] | 5.6 µM
O=c1cc([C@H]2CCN[C@@H](c3cc(F)c(C(F)(F)F)c(F)c3)C2)o[nH]1 [Example 70, 5-((2R,4S)-2-(3,5-Difluoro-4-(trifluoromethyl)phenyl)piperidin-4-yl)isoxazol-3(2H)-one] | 2.5 µM
O=c1cc([C@@H]2CCN[C@@H](Cc3cc(F)ccc3F)C2)o[nH]1 (relative stereo) [Example 126, 5-(Trans-2-(2,5-difluorobenzyl)piperidin-4-yl)isoxazol-3(2H)-one] | 3.6 µM
O=c1cc([C@@H]2CCN[C@@H](Cc3ccc(C(F)(F)F)cc3)C2)o[nH]1 [Example 106, 5-((2R,4R)-2-(4-(Trifluoromethyl)benzyl)piperidin-4-yl)isoxazol-3(2H)-one] | 88.8 µM
O=c1cc([C@@H]2CCN[C@@H](Cc3ccc(F)cc3F)C2)o[nH]1 (relative stereo) [Example 136, 5-(Trans-2-(2,4-difluorobenzyl)piperidin-4-yl)isoxazol-3(2H)-one] | 4.94 µM
O=c1cc([C@@H]2CCN[C@@H](Cc3c(F)cccc3F)C2)o[nH]1 (relative stereo) [Example 129, 5-(Trans-2-(2,6-difluorobenzyl)piperidin-4-yl)isoxazol-3(2H)-one] | 10.2 µM
O=c1cc([C@@H]2CCN[C@H](Cc3cc(F)cc(C(F)(F)F)c3)C2)o[nH]1 [Example 138, 5-((2S,4R)-2-(3-Fluoro-5-(trifluoromethyl)benzyl)piperidin-4-yl)isoxazol-3(2H)-one] | 123 µM
CS(=O)(=O)c1ccc(C[C@H]2C[C@H](c3cc(=O)[nH]o3)CCN2)cc1 (relative stereo) [Example 119, 5-(Trans-2-(4-(methylsulfonyl)benzyl)piperidin-4-yl)isoxazol-3(2H)-one] | 10.7 µM
CC(C)(C)c1cc(C[C@H]2C[C@H](c3cc(=O)[nH]o3)CCN2)cc(C(C)(C)C)c1 (relative stereo) [Example 148, 5-(Trans-2-(3,5-di-tert-butylbenzyl)piperidin-4-yl)isoxazol-3(2H)-one] | 2.7 µM
O=c1cc([C@@H]2CCN[C@@H](c3ccc(OC(F)(F)F)cc3F)C2)o[nH]1 (relative stereo) [Example 59, 5-(Trans-2-(2-fluoro-4-(trifluoromethoxy)phenyl)piperidin-4-yl)isoxazol-3(2H)-one] | 70.7 µM
CC(C)(C[C@H]1C[C@@H](c2cc(=O)[nH]o2)CCN1)c1ccccc1 [Example 19, 5-((2R,4S)-2-(2-Methyl-2-phenylpropyl)piperidin-4-yl)isoxazol-3(2H)-one] | 1.6 µM
O=c1cc([C@H]2CCN[C@@H](c3cc(F)c(F)c(F)c3)C2)o[nH]1 [Example 60, 5-((2R,4S)-2-(3,4,5-Trifluorophenyl)piperidin-4-yl)isoxazol-3(2H)-one] | 1.9 µM
O=c1cc([C@@H]2CCN[C@H](CCc3ccc(F)cc3)C2)o[nH]1 [Example 93, 5-((2R,4R)-2-(4-Fluorophenethyl)piperidin-4-yl)isoxazol-3(2H)-one] | 69.8 µM
O=c1cc([C@@H]2CCN[C@H](c3cc(Cl)cc(Cl)c3)C2)o[nH]1 [Example 56, 5-((2S,4R)-2-(3,5-Dichlorophenyl)piperidin-4-yl)isoxazol-3(2H)-one] | 43.8 µM
O=c1cc([C@@H]2CCN[C@@H](c3cc(F)c(F)c(F)c3)C2)o[nH]1 (relative stereo) [Example 62, 5-(Trans-2-(3,4,5-trifluorophenyl)piperidin-4-yl)isoxazol-3(2H)-one] | 7.1 µM
O=c1cc([C@@H]2CCN[C@H](COC3CCCCC3)C2)o[nH]1 [Example 85, 5-((2S,4R)-2-(Cyclohexyloxymethyl)piperidin-4-yl)isoxazol-3(2H)-one] | 173 µM
O=c1cc([C@@H]2CCN[C@H](c3ccc(Cl)cc3Cl)C2)o[nH]1 [Example 52, 5-((2S,4R)-2-(2,4-Dichlorophenyl)piperidin-4-yl)isoxazol-3(2H)-one] | 1940 µM
O=c1cc([C@H]2CCN[C@@H](Cc3ccc(F)c(F)c3)C2)o[nH]1 [Example 120, 5-((2R,4S)-2-(3,4-Difluorobenzyl)piperidin-4-yl)isoxazol-3(2H)-one] | 0.89 µM
O=c1cc([C@@H]2CCN[C@@H](c3ccc(C(F)(F)F)cc3)C2)o[nH]1 (relative stereo) [Example 35, 5-(Trans-2-(4-(trifluoromethyl)phenyl)piperidin-4-yl)isoxazol-3(2H)-one] | 14.4 µM
O=c1cc([C@@H]2CCN[C@@H](c3cccc(C(F)(F)F)c3)C2)o[nH]1 (relative stereo) [Example 32, 5-(Trans-2-(3-(trifluoromethyl)phenyl)piperidin-4-yl)isoxazol-3(2H)-one] | 23.6 µM
